Where no end group is shown, it is not given here.

Series [1] relates to Streptococcus faecalis (ATCC 29212). The series is described as follows: Antimicrobial assay, macrodilution broth. The following applies: Streptococcus faecalis (29212); for 50% Minimal inhibitory concentration: 50% inhibition of growth; for 100% Minimal inhibitory concentration: complete inhibition of growth. The series is classed as cell-based. As to the method:
(§1) The antimicrobial activities of magainin analogues were assayed by macrodilution broth procedure of Jones et al (Jones, R. N., Barry, A. L., Gaven, T. L. and Washington, J. A. in "Manual of Clinical Microbiology", Lennette, D. H. Balows, A., Hausler, W. J. and Shadomy, H. J., eds; fourth edition, American Society for Microbiology, Washington, D.C., 1985) with modifications. Different concentrations of peptides were added to 2 ml of trypticase soy broth (BBL) containing the inocula of the test organisms adjusted to 10^5 and 10^6 CFU/ml. Microbial growth was determined by the increase in OD600, after incubation of the tubes at 35° C. for 6-9 h depending on the growth rate. […] The 50% minimal inhibitory concentration was determined from the plots of growth vs concentration of peptide.

In series [2] the test system is Klebsiella pneumoniae (ATCC 13883). Nature of the series: Antimicrobial assay, macrodilution broth. The series is classed as cell-based. The following applies: Klebsiella pneumoniae (13883); for 50% Minimal inhibitory concentration: 50% inhibition of growth; for 100% Minimal inhibitory concentration: complete inhibition of growth. The protocol: as §1
For series [3], the system named is Staphylococcus aureus (ATCC 29213) beta-lactamase(+). The series is described as follows: Antimicrobial assay, macrodilution broth. Type of series: cell-based. The conditions noted are these: Staphylococcus aureus (29213) beta-lactamase(+); for 50% Minimal inhibitory concentration: 50% inhibition of growth; for 100% Minimal inhibitory concentration: complete inhibition of growth. As to the method: as §1

Series [4] deals with Pseudomonas aeruginosa (ATCC 27853). Nature of the series: Antimicrobial assay, macrodilution broth. The series is classed as cell-based. The following applies: Pseudomonas aeruginosa (27853); for 50% Minimal inhibitory concentration: 50% inhibition of growth; for 100% Minimal inhibitory concentration: complete inhibition of growth. As to the method:
as §1

Series [5] concerns Streptococcus agalactiae (ATCC 12386). The series is described as follows: Antimicrobial assay, macrodilution broth. Type of series: cell-based. The conditions noted are these: Streptococcus agalactiae (12386); for 50% Minimal inhibitory concentration: 50% inhibition of growth; for 100% Minimal inhibitory concentration: complete inhibition of growth. As to the method:
as §1

The subject of series [6] is Staphylococcus aureus (ATCC 25923) beta-lactamase(-). Nature of the series: Antimicrobial assay, macrodilution broth. The series is classed as cell-based. The following applies: Staphylococcus aureus (25923) beta-lactamase(-); for 50% Minimal inhibitory concentration: 50% inhibition of growth; for 100% Minimal inhibitory concentration: complete inhibition of growth. The protocol:
as §1

Series [7] relates to Escherichia coli (ATCC 25922). Nature of the series: Antimicrobial assay, macrodilution broth. Type of series: cell-based. The conditions noted are these: Escherichia coli (25922); for 50% Minimal inhibitory concentration: 50% inhibition of growth; for 100% Minimal inhibitory concentration: complete inhibition of growth. As to the method: as §1
Series [8] is described as follows: Circular dichroic measurements. Type of series: physicochemical.
In series [9] the test system is Gram-positive and Gram-negative bacteria. Nature of the series: Antimicrobial assay, overall statements. Type of series: cell-based. As to the method: as §1
The test system of a further series is human erythrocyte. Nature of the series: Erythrocyte hemolysis assay. Type of series: cell-based. The protocol:
To 75×12 mm borosilicate test tubes containing a predetermined amount of dried peptide in duplicate, 2.5 ml of diluted human erythrocyte suspension (10%, v/v) in isotonic phosphate-buffered saline was added. After gentle mixing and incubation for 10 min at 37° C., tubes were centrifuged at 3000×g for 10 min. The supernatant was separated from cells and debris, diluted if necessary, and OD350 measured. 100% hemolysis was obtained by using 0.1% Triton X-100.

Where [10] appears, read: 40% CF3CH2OH (trifluoroethanol).

Turning to “Ac-GIGKFLHAAKKFAKAFVAEIMNS-NH2 [analogue C]”, the “50% Minimal inhibitory concentration” value in series [1] is 5 µg/mL; in series [2] it was 60 µg/mL; in [3], 7.5 µg/mL; in series [4], > 100 µg/mL; in series [5] it was 0.5 µg/mL; in series [6], 10 µg/mL. In addition, the “50% Minimal inhibitory concentration” value in series [7] was 10 µg/mL. Further, the “100% Minimal inhibitory concentration” value in series [1] is 25 µg/mL; in [2], 100 µg/mL; in series [3] it was 25 µg/mL; in series [4], > 100 µg/mL; in series [5], 1 µg/mL; in series [6], 25 µg/mL. The “100% Minimal inhibitory concentration” value in series [7] turned out to be 25 µg/mL. Moreover, the “% structure calculated from CD spectra, alpha-helix” value is 0% in series [8] (50 mM K-phosphate, pH7) and 61% in series [8] (setting [10]). Besides, the “% structure calculated from CD spectra, beta-sheet” value (“% structure calculated … beta-sheet” for short) is given as 48% in [8] (50 mM K-phosphate, pH7) and 14% in [8] (setting [10]). Also, the “growth inhibition of both Gram-positive and Gram-negative bacteria (in words)” value (from here on “growth inhibition”) in series [9] was “active”. Further, the “growth inhibitory activity toward Gram-negative bacteria” value in series [9] (effect of acetylation of the alpha-amino terminus, versus analogue B) is recorded as “significantly reduced”.
As for “GIGKFLHAAKKFAKAFVAEIMNS-NH2 [analogue B]”, the “50% Minimal inhibitory concentration” value in [1] is 5 µg/mL; in series [2], 5 µg/mL; in series [3], 5 µg/mL; in [4], 15 µg/mL; in [5], 0.25 µg/mL; in series [6] it was 5 µg/mL. Besides, the “50% Minimal inhibitory concentration” value in series [7] is 1.2 µg/mL. Further, the “100% Minimal inhibitory concentration” value in [1] worked out at 10 µg/mL; in series [2], 10 µg/mL; in series [3], 10 µg/mL; in series [4], 25 µg/mL; in series [5] it was 1 µg/mL; in series [6], 10 µg/mL. Further, in series [7], the “100% Minimal inhibitory concentration” value amounted to 2.5 µg/mL. Moreover, the “% structure calculated from CD spectra, alpha-helix” value was 2% in series [8] (50 mM K-phosphate, pH7) and 61% in series [8] (setting [10]). In addition, the “% structure calculated … beta-sheet” value in series [8] (50 mM K-phosphate, pH7) is on record as 44%; in series [8] (setting [10]), 9%. Also, the “growth inhibition” value in series [9] is given as “active”.
As for “GIGKFLHSAGKFGKAFVGEIMKS [Magainin 1, reference compound]”, the “50% Minimal inhibitory concentration” value in [1] turned out to be 360 µg/mL; in series [2], 100 µg/mL; in [3], 500 µg/mL; in series [4] it was 430 µg/mL; in series [5], 60 µg/mL; in series [6], 360 µg/mL. For the same substance, the “50% Minimal inhibitory concentration” value in series [7] is 100 µg/mL. The “100% Minimal inhibitory concentration” value in [1] is > 500 µg/mL; in [2], 250 µg/mL; in [3], > 500 µg/mL; in series [4], > 500 µg/mL; in [5] it was 75 µg/mL; in series [6], > 500 µg/mL. Also, the “100% Minimal inhibitory concentration” value in [7] was 250 µg/mL. Also, the “% structure calculated from CD spectra, alpha-helix” value was 0% in series [8] (50 mM K-phosphate, pH7) and 24% in series [8] (setting [10]). In addition, the “% structure calculated … beta-sheet” value is listed as 44% in series [8] (50 mM K-phosphate, pH7) and 37% in series [8] (setting [10]).
Regarding “GIGKFLHSAKKFAKAFVAEIMNS-NH2 [analogue F]”, the “50% Minimal inhibitory concentration” value in [1] is 10 µg/mL; in series [2], 5 µg/mL; in [3] it was 5 µg/mL; in series [4], 25 µg/mL; in series [5], 0.25 µg/mL; in series [6] it was 10 µg/mL. Further, in [7], the “50% Minimal inhibitory concentration” value is 1.2 µg/mL. Besides, the “100% Minimal inhibitory concentration” value in series [1] worked out at 25 µg/mL; in series [2], 25 µg/mL; in [3], 10 µg/mL; in series [4], 50 µg/mL; in series [5], 1 µg/mL; in [6], 25 µg/mL. Further, the “100% Minimal inhibitory concentration” value in series [7] is 5 µg/mL. The “% structure calculated from CD spectra, alpha-helix” value in series [8] (50 mM K-phosphate, pH7) was 1%; in series [8] (setting [10]) it was 63%. Also, the “% structure calculated … beta-sheet” value in series [8] (50 mM K-phosphate, pH7) is recorded as 46%; in series [8] (setting [10]), 6%. Moreover, the “hemolytic activity (in words, comparative)” value with human erythrocyte is “lower hemolytic activity”. For the same substance, in series [9], the “growth inhibition” value is “active”. For the same substance, the antimicrobial activity result in [9] (effect of omission of replacement at Ser8) is listed as “only slightly”.
